Source: patent US7160874B2, “Phenylalanine derivatives” (Ajinomoto Co., Inc., priority 1999, dated 2007)

Assays:
integrin α4β1 = target: T1, integrin α4β1 (Homo sapiens, UniProt P05556+P13612); assay: VCAM antagonist activity (VCAM-1/α4β1 binding assay); assay type: cell-based; settings: Jurkat cells binding to VCAM-1; read-out: VCAM antagonistic activity (IC50) α4β1
T1 construct: cell strain Jurkat (ATCC TIB-152) of human T cells, known to express integrin α4β1; host or cells: Jurkat (human T cell line)
Description: (Test Example) VCAM Antagonist Activity (VCAM-1/α4β1 Binding Assay):
The capacity of a test substance antagonistic to the binding of cell strain Jurkat (ATCC TIB-152) of human T cells, known to express integrin α4β1, to VCAM-1 was determined.
(§1) 100 μl/well of a solution (500 ng/ml) of recombinant human VCAM-1 (R & D systems) solution diluted with buffer A (0.1 M NaHCO3, pH 9.6) was added to a micro titer plate having 96 wells (Nunc Maxisorp). After the incubation at 4° C. overnight, unbound VCAM-1 was removed by washing once with PBS. After completion of the washing, a buffer (buffer B) obtained by diluting Block Ace® (Dainippon Pharmaceutical Co., Ltd.) with PBS to 1/4 concentration was added in an amount of 150 μl/well. After the incubation at room temperature for 1 hour, buffer B was removed and the plate was washed with PBS once.
Jurkat cells were washed with Dulbecco modified Eagle medium (SIGMA, hereinafter referred to as “DMEM”) twice and then incubated in DMEM containing 10 μg/ml of Calcein-AM (Wako Pure Chemical Industries, Ltd.) at 37° C. in dark place for 30 minutes to label with fluorescence. The cells were again suspended in a binding buffer (20 mM HEPES, DMEM containing 0.1% BSA).
(§2) 50 μl of a test substance of various concentrations obtained by the dilution with the binding buffer was added to the plate. Immediately thereafter, 50 μl (final volume: 100 μl/well) of the fluorescent Jurkat cells (4×10^6 cells/ml) were added thereto, and they were incubated at room temperature for 30 minutes. After the shaking on a plate shaker (IKA MTS-4) at 800 rpm for 30 seconds, the solution was immediately removed to remove the unbound cells. The fluorescence quantity of the bound cells remaining in the wells was determined with a fluorescent plate reader (Wallac 1420 ARVO multi-label counter) (filter excitation wave length: 485 nm, emission wave length: 535 nm). The fluorescent strength thus obtained is proportional to the number of Jurkat cells bound to VCAM-1 and remaining on the plate. The binding rate of each test material in various concentrations was determined while the fluorescent strength of the test material-free well was determined to be 100%. The concentration IC50 for the 50% binding inhibition was calculated.
(§3) The activities were classified into group A wherein IC50 was 0.02 μmol/l or below, group B wherein IC50 was higher than 0.02 μmol/l and not above 0.1 μmol/l, group C wherein IC50 was higher than 0.1 μmol/l and not above 2 μmol/l, and group D wherein IC50 was higher than 2 μmol/l and not above 10 μmol/l.

integrin α4β7 = target: T2, integrin α4β7 (Homo sapiens, UniProt P13612+P26010); assay: VCAM antagonistic activity (VCAM-1/α4β7 binding assay); assay type: cell-based; settings: RPMI-8866 cells binding to VCAM-1; read-out: VCAM antagonistic activity (IC50) α4β7
T2 construct: lymphoma cell strain RPMI-8866 of human B cells, known to express integrin α4β7; endogenous in cells; host or cells: RPMI-8866 (human B lymphoma cell line)
T2 sequence (P13612 34-1032): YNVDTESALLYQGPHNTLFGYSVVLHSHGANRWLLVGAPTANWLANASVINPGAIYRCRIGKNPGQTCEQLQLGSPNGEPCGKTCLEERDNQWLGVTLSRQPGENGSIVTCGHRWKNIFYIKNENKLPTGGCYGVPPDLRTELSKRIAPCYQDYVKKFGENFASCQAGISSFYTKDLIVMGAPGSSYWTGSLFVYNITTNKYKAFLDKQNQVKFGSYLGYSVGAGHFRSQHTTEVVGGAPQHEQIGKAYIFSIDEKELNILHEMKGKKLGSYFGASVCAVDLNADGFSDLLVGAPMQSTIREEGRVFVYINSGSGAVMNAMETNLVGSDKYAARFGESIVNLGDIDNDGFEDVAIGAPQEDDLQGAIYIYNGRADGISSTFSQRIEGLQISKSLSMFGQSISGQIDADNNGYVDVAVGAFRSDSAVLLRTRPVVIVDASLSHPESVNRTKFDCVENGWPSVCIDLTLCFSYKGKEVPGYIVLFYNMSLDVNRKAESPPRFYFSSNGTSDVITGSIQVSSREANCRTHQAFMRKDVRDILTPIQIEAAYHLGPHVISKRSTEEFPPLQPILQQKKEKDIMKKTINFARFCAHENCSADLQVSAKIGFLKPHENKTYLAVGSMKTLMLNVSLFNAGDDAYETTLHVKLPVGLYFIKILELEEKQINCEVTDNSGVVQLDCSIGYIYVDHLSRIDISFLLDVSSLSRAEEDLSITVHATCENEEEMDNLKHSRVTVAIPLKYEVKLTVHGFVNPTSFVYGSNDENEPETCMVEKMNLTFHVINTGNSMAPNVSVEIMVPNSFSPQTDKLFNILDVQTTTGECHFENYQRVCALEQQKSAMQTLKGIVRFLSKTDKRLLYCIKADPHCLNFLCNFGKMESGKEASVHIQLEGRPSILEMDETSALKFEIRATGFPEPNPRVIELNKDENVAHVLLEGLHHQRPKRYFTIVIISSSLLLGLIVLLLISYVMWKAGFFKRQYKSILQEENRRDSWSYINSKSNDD
T2 sequence (P26010 20-798): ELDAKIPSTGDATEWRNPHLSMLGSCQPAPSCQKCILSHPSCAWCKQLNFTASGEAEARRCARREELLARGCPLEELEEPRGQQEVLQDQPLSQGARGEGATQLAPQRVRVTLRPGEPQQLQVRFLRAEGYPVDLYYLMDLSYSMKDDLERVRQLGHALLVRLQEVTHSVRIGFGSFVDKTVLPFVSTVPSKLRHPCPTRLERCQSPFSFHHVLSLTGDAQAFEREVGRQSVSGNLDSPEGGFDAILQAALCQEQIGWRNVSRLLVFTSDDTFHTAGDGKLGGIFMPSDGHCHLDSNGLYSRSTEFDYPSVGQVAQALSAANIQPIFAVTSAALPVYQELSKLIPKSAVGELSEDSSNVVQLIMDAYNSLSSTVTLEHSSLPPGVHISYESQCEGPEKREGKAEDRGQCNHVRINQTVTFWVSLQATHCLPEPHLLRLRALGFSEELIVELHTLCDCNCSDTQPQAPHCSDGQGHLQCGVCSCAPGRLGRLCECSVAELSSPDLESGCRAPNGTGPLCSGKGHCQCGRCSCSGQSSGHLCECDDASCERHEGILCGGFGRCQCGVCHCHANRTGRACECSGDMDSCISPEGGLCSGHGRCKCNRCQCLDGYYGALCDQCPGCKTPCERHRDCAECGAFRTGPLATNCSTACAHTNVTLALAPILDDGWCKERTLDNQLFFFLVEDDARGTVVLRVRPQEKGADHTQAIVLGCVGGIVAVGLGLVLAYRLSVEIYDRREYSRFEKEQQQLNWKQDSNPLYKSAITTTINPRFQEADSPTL
Description: (Test Example) VCAM Antagonistic Activity (VCAM-1/α4β7 Binding Assay):
The capacity of a test substance antagonistic to the binding of lymphoma cell strain RPMI-8866 of human B cells, known to express integrin α4β7, to VCAM-1 was determined.
as §1
RPMI-8866 cells were incubated in Dulbecco modified Eagle medium containing 10 μg/ml of Calcein-AM (Wako Pure Chemical Industries, Ltd.) (SIGMA, hereinafter referred to as “DMEM”) at 37° C. for 30 minutes to label with fluorescence. The cells were again suspended in a binding buffer (20 mM HEPES, DMEM containing 0.1% BSA) containing 4 mM of MnCl2.
as §2, with “RPMI-8866” for “Jurkat”
as §3

T1 sequence (P05556 21-798, one chain of several): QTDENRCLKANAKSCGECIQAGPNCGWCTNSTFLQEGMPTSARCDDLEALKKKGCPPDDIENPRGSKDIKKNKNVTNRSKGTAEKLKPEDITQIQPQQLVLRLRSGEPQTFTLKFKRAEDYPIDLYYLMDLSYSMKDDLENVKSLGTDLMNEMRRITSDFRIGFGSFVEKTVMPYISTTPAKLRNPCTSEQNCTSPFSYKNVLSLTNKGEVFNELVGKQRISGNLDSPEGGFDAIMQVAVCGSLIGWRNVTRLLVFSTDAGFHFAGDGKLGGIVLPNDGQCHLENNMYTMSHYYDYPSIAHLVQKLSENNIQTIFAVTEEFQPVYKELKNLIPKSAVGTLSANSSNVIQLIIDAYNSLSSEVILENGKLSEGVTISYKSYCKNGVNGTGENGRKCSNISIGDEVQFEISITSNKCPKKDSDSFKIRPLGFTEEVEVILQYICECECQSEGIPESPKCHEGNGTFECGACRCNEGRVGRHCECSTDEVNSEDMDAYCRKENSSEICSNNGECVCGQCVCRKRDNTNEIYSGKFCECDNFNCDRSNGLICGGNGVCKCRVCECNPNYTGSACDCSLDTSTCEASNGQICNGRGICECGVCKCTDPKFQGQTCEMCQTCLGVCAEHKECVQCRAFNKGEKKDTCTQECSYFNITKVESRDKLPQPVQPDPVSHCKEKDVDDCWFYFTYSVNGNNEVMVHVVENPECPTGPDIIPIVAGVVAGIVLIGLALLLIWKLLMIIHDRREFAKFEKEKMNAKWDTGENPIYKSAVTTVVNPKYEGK

IC50 (integrin α4β1) [nM]	IC50 (integrin α4β7) [nM]	Compound
2000 to 10000	20 to 100	CCCC(CC)(C(=O)NC(Cc1ccc(OCc2c(Cl)cccc2Cl)cc1)C(=O)O)C(=O)N1CCCC1 (mixture of isomers) [Example 37]
100 to 2000	< 20	CCC(CCOC)(C(=O)NC(Cc1ccc(OCc2c(Cl)cccc2Cl)cc1)C(=O)O)C(=O)N1CCCC1 (mixture of isomers) [Example 43]
100 to 2000	20 to 100	CCC(CC)(C(=O)NC(Cc1ccc(OCc2c(Cl)cccc2Cl)cc1)C(=O)O)C(=O)N1CCCCC1C(N)=O (mixture of isomers) [Example 51]
100 to 2000	100 to 2000	CCC(CC)(C(=O)NC(Cc1ccc(OCc2c(Cl)cccc2Cl)cc1)C(=O)O)C(=O)N1CCCC(CO)C1 (mixture of isomers) [Example 60]
20 to 100	< 20	CCC(CC)(C(=O)N[C@@H](Cc1ccc(OCc2c(Cl)cccc2Cl)cc1)C(=O)O)C(=O)N1C[C@@H](O)[C@H](O)C1 (relative stereo) [Example 83, N-(2-{[(trans-3,4-dihydroxypyrrolidine)-1-yl]carbonyl}-2-ethyl-butanoyl)-O-(2,6-dichlorobenzyl)-L-tyrosine]
100 to 2000	20 to 100	CN(C)C(=O)C(C)(C)C(=O)N[C@@H](Cc1ccc(OCc2c(Cl)cccc2Cl)cc1)C(=O)O [Example 2, N-[2-(dimethylaminocarbonyl)-2-methyl-propanoyl]-O-(2,6-dichlorobenzyl)-L-tyrosine]
100 to 2000	< 20	CCC(CC)(C(=O)N[C@@H](Cc1ccc(OCc2c(Cl)cccc2Cl)cc1)C(=O)O)C(=O)N(C)C [Example 3]
100 to 2000	100 to 2000	CCC(CC)(C(=O)Nc1ccc(O)cc1)C(=O)N[C@@H](Cc1ccc(OCc2c(Cl)cccc2Cl)cc1)C(=O)O [Example 5]
2000 to 10000	100 to 2000	CCC(CC)(C(=O)NCCc1ccc(O)cc1)C(=O)N[C@@H](Cc1ccc(OCc2c(Cl)cccc2Cl)cc1)C(=O)O [Example 6]
100 to 2000	100 to 2000	CCC(CC)(C(=O)N[C@@H](Cc1ccc(OCc2c(Cl)cccc2Cl)cc1)C(=O)O)C(=O)N1CCN(c2ccc(O)cc2)CC1 [Example 7]
100 to 2000	100 to 2000	CN(C)C(=O)C1(C(=O)N[C@@H](Cc2ccc(OCc3c(Cl)cccc3Cl)cc2)C(=O)O)CCCC1 [Example 8]
100 to 2000	100 to 2000	CCC(CC)(C(=O)N[C@@H](Cc1ccc(OCc2c(Cl)cccc2Cl)cc1)C(=O)O)C(=O)N1CCCCC1 [Example 17]
2000 to 10000	100 to 2000	CN(C)C(=O)C1(C(=O)N[C@@H](Cc2ccc(OCc3c(Cl)cccc3Cl)cc2)C(=O)O)CC1 [Example 21]
2000 to 10000	100 to 2000	CN(C(=O)C1(C(=O)N[C@@H](Cc2ccc(OCc3c(Cl)cccc3Cl)cc2)C(=O)O)CC1)c1ccccc1 [Example 23]
100 to 2000	20 to 100	CCC(CC)(C(=O)N[C@@H](Cc1ccc(OCc2c(Cl)cccc2Cl)cc1)C(=O)O)C(=O)N1CCCC1 [Example 32]
100 to 2000	20 to 100	CC(C)(C(=O)N[C@@H](Cc1ccc(OCc2c(Cl)cccc2Cl)cc1)C(=O)O)C(=O)N1CCCC1 [Example 33]

Compound	IC50 (integrin α4β1) [nM]	IC50 (integrin α4β7) [nM]
CCC(C)(C(=O)NC(Cc1ccc(OCc2c(Cl)cccc2Cl)cc1)C(=O)O)C(=O)N1CCCC1 (mixture of isomers) [Example 38]	100 to 2000	100 to 2000
CCC(CC)(C(=O)NC(Cc1ccc(OCc2c(Cl)cccc2Cl)cc1)C(=O)O)C(=O)N1CCC(N)C1 (mixture of isomers) [Example 47]	100 to 2000	< 20
CCC(CC)(C(=O)NC(Cc1ccc(OCc2c(Cl)cccc2Cl)cc1)C(=O)O)C(=O)N1CCCC(O)C1 (mixture of isomers) [Example 48]	100 to 2000	20 to 100
O=C(O)[C@H](Cc1ccc(OCc2c(Cl)cccc2Cl)cc1)NC(=O)C1(C(=O)N2CCN(c3ccc(O)cc3)CC2)CCCC1 [Example 9]	100 to 2000	100 to 2000
CN(C)C(=O)C1(C(=O)N[C@@H](Cc2ccc(OCc3c(Cl)cccc3Cl)cc2)C(=O)O)CCC1 [Example 29]	100 to 2000	100 to 2000
CCC(CC)(C(=O)N[C@@H](Cc1ccc(OCc2c(Cl)cccc2Cl)cc1)C(=O)O)C(=O)N1CCOCC1 [Example 34]	100 to 2000	20 to 100
